In publication PMC7127144 (Bioorganic & Medicinal Chemistry, 2006):

How the values were obtained:
PBM cells = settings: human
HIV-1 (strain LAI) = assay type: cell-based
SARSCoV = experiment: organism not typed; assay type: cell-based; settings: read-out: SARSCoV IC50
[1] = test system: Punta Toro virus (strain Adames)
in vitro [2] = settings: human
in vitro [3] = settings: human; remark: listed apart in the source

Row | SMILES | IC50 (PBM cells) [µM] | Anti-HIV activity (in words) (HIV-1 (strain LAI)) | IC50 (SARSCoV) [µM] | Cytotoxicity in the Punta Toro virus assay (in words) [1] | IC50 (in vitro [2]) [µM] | IC50 (in vitro [3]) [µM]
1 | Cc1cn([C@H]2C[C@H](N=[N+]=[N-])[C@@H](CO)O2)c(=O)[nH]c1=O [AZT] | > 100 |  |  |  |  | 
2 | Nc1ncnc2c([C@@H]3C=C(CO)[C@@H](O)[C@H]3O)c[nH]c12 [Compound 1, (1′S,2′S,3′R)-4-Amino-7-(2′,3′-dihydroxy-4′-hydroxymethyl-4′-cyclopenten-1′-yl)-5H-pyrrolo[3,2-d]pyrimidine] |  | moderate anti-HIV activity |  |  |  | 
3 | Nc1nc(O)c2[nH]cc([C@@H]3C=C(CO)[C@@H](O)[C@H]3O)c2n1 [Compound 2, (1′S,2′S,3′R)-9-(2′,3′-Dihydroxy-4′-hydroxymethyl-4′-cyclopenten-1′-yl)-deazaguanosine] |  |  | > 100 | without any cytotoxicity | > 100 | > 100
4 | Nc1nc(=O)c([C@@H]2C=C(CO)[C@@H](O)[C@H]2O)c[nH]1 [Compound 3, (1′S,2′S,3′R)-5-(2′,3′-Dihydroxy-4′-hydroxymethyl-4′-cyclopenten-1′-yl)-isocytosine] |  |  | > 100 |  | > 100 | > 100
5 | O=c1[nH]cc([C@@H]2C=C(CO)[C@@H](O)[C@H]2O)c(=O)[nH]1 [Compound 4, (1′S,2′S,3′R)-5-(2′,3′-Dihydroxy-4′-hydroxymethyl-4′-cyclopenten-1′-yl)uracil] |  |  | > 100 | without any cytotoxicity | > 100 | > 100
